From patent US8729017B2 (priority 2011, dated 2014)
Where two headings read alike, the source gives them in different places. Numbered stars: 1 amine (or outer) side, 2 acyl side, 3 side chain; on linkers, the order of the positions; unused ones are H or OH. Square brackets hold non-standard residues; d marks the D form. Side chains are listed from the residue outwards. Peptide text beside a SMILES is read from it. * marks the point of attachment. γGlu = O=C(O)[C@H](CCC(=O)[*:2])N[*:1]; Palmitoyl = CCCCCCCCCCCCCCCC(=O)*; Aib = CC(C)(N)C(=O)O

Tests used:
Type in all cases: cell-based
[1] = molecular target: T1, glucagon receptor (Homo sapiens, UniProt P47871); experiment: cAMP induction, firefly luciferase reporter assay in HEK293 cells co-transfected with the glucagon receptor
T1 construct: expressed in transfected cells; host or cells: HEK293
Method: (§1) The ability of each peptide to induce cAMP was measured in a firefly luciferase-based reporter assay. […] At the end of the incubation, 100 μL of LucLite luminescence substrate reagent (Perkin Elmer, Wellesley, Mass.) were added to each well. […] In some instances, the in vitro agonist activity at the GIP receptor was also tested.

[2] = molecular target: T2, GLP-1 receptor (Homo sapiens, UniProt P43220); experiment: cAMP induction, firefly luciferase reporter assay in HEK293 cells co-transfected with the GLP-1 receptor
T2 construct: expressed in transfected cells; host or cells: HEK293
Method: as §1

[3] = molecular target: T3, GIP receptor (Homo sapiens, UniProt P48546); experiment: in vitro agonist activity at the GIP receptor (cAMP luciferase reporter, HEK293 cells)
T3 construct: expressed in transfected cells; host or cells: HEK293
T3 sequence (P48546 22-466): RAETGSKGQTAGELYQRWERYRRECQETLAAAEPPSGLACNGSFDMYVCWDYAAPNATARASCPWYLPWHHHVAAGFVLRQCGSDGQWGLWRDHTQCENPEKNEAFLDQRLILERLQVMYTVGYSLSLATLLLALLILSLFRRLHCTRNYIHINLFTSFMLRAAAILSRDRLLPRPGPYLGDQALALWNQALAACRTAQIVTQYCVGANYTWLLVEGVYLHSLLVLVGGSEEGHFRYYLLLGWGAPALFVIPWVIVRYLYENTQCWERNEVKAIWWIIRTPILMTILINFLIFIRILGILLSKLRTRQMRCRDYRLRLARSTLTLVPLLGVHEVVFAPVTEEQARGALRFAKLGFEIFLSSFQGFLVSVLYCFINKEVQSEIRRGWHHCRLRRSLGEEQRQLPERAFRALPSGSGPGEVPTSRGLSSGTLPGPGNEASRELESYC
Method: as §1, with “It is understood that a lower EC50 indicates higher activity or potency at the receptor. […] The” for “The”

[4] = HEK293 cells, cAMP-responsive luciferase reporter, 5 hours incubation
[5] = in vitro agonist activity, read-out: EC50 (nM) at GIP receptor

T2 sequence (P43220 24-463): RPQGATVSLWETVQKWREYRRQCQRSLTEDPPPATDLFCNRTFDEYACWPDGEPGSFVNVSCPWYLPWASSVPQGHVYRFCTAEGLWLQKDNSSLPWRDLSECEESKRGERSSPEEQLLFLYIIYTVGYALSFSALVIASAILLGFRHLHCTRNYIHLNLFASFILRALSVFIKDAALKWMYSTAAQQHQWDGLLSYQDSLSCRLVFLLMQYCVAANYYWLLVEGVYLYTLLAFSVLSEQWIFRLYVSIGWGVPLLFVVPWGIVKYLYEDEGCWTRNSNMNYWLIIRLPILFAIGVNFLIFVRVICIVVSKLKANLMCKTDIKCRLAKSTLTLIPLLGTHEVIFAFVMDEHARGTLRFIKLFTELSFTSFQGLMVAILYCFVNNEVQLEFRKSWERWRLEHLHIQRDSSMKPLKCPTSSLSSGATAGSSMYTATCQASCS
T1 sequence (P47871 26-477, species assumed): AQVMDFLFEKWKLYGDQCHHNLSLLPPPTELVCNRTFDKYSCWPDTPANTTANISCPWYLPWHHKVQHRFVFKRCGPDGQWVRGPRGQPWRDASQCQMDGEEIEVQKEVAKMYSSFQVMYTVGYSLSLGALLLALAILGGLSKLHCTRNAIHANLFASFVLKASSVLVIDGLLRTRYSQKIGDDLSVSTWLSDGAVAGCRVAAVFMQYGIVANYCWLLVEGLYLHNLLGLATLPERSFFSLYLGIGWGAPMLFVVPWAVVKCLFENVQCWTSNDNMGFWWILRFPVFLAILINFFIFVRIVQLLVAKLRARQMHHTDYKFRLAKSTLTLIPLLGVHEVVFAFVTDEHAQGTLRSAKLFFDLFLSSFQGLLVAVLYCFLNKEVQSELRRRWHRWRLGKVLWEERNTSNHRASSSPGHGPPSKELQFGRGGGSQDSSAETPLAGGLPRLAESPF

| SMILES | EC50 [1, 4] [nM] | EC50 [2, 4] [nM] | EC50 [3, 5] [nM] | EC50 [1] [nM] | EC50 [2] [nM] | EC50 [3] [nM] |
| --- | --- | --- | --- | --- | --- | --- |
| CCCCCCCCCCCCCCCC(=O)N[C@@H](CCC(=O)NCCCC[C@H](NC(=O)[C@H](CC(=O)O)NC(=O)[C@H](CO)NC(=O)[C@@H](NC(=O)[C@H](Cc1ccccc1)NC(=O)[C@@H](NC(=O)CNC(=O)[C@H](CCC(N)=O)NC(=O)C(C)(C)NC(=O)[C@@H](N)Cc1c[nH]cn1)[C@@H](C)O)[C@@H](C)O)C(=O)N[C@@H](CO)C(=O)N[C@@H](CCCCN)C(=O)N[C@@H](Cc1ccc(O)cc1)C(=O)N[C@@H](CC(C)C)C(=O)N[C@@H](CC(=O)O)C(=O)NC(C)(C)C(=O)N[C@@H](CCCNC(=N)N)C(=O)N[C@@H](C)C(=O)N[C@@H](C)C(=O)N[C@@H](CCC(N)=O)C(=O)N[C@@H](CC(=O)O)C(=O)N[C@@H](Cc1ccccc1)C(=O)N[C@H](C(=O)N[C@@H](CCC(N)=O)C(=O)N[C@@H](Cc1c[nH]c2ccccc12)C(=O)N[C@@H](CC(C)C)C(=O)N[C@@H](CC(C)C)C(=O)N[C@@H](CC(=O)O)C(=O)NCC(=O)N[C@@H](CCCNC(=N)N)C(=O)NCC(N)=O)C(C)C)C(=O)O [compound 30] (H-H[Aib]QGTFTSDK([γGlu-Palmitoyl])SKYLD[Aib]RAAQDFVQWLLDGRG-NH2) | 0.933 | 0.0082 | 9.06 |  |  |  |
| CCCCCCCCCCCCCCCC(=O)N[C@@H](CCC(=O)N[C@@H](CCC(=O)NCCCC[C@H](NC(=O)[C@H](CC(=O)O)NC(=O)[C@H](CO)NC(=O)[C@@H](NC(=O)[C@H](Cc1ccccc1)NC(=O)[C@@H](NC(=O)CNC(=O)[C@H](CCC(N)=O)NC(=O)C(C)(C)NC(=O)[C@@H](N)Cc1c[nH]cn1)[C@@H](C)O)[C@@H](C)O)C(=O)N[C@@H](CO)C(=O)N[C@@H](CCCCN)C(=O)N[C@@H](Cc1ccc(O)cc1)C(=O)N[C@@H](CC(C)C)C(=O)N[C@@H](CC(=O)O)C(=O)NC(C)(C)C(=O)N[C@@H](CCCNC(=N)N)C(=O)N[C@@H](C)C(=O)N[C@@H](C)C(=O)N[C@@H](CCC(N)=O)C(=O)N[C@@H](CC(=O)O)C(=O)N[C@@H](Cc1ccccc1)C(=O)N[C@H](C(=O)N[C@@H](CCC(N)=O)C(=O)N[C@@H](Cc1c[nH]c2ccccc12)C(=O)N[C@@H](CC(C)C)C(=O)N[C@@H](CCCCN)C(=O)NC(C)(C)C(=O)NCC(=O)N[C@@H](CCCNC(=N)N)C(=O)NCC(N)=O)C(C)C)C(=O)O)C(=O)O [compound 26] (H-H[Aib]QGTFTSDK([γGlu-γGlu-Palmitoyl])SKYLD[Aib]RAAQDFVQWLK[Aib]GRG-NH2; N-terminus assumed) | 0.106 | 0.004 | 3.29 |  |  |  |
| CCCCCCCCCCCCCCCC(=O)N[C@@H](CCC(=O)NCCCC[C@H](NC(=O)[C@H](CC(=O)O)NC(=O)[C@H](CO)NC(=O)[C@@H](NC(=O)[C@H](Cc1ccccc1)NC(=O)[C@@H](NC(=O)CNC(=O)[C@H](CCC(N)=O)NC(=O)[C@@H](CO)NC(=O)CCc1c[nH]cn1)[C@@H](C)O)[C@@H](C)O)C(=O)N[C@@H](CO)C(=O)N[C@@H](CCCCN)C(=O)N[C@@H](Cc1ccc(O)cc1)C(=O)N[C@@H](CC(C)C)C(=O)N[C@@H](CC(=O)O)C(=O)N[C@@H](CCC(=O)O)C(=O)N[C@@H](CCCNC(=N)N)C(=O)N[C@@H](C)C(=O)N[C@@H](C)C(=O)N[C@@H](CCC(N)=O)C(=O)N[C@@H](CC(=O)O)C(=O)N[C@@H](Cc1ccccc1)C(=O)N[C@H](C(=O)N[C@@H](CCC(N)=O)C(=O)N[C@@H](Cc1c[nH]c2ccccc12)C(=O)N[C@@H](CC(C)C)C(=O)N[C@@H](CC(C)C)C(=O)N[C@@H](CC(=O)O)C(=O)N[C@H](C(N)=O)[C@@H](C)O)C(C)C)C(=O)O [compound 20] | 0.006 | 0.004 | 1.38 |  |  |  |
| CCCCCCCCCCCCCCCC(=O)N[C@@H](CCC(=O)NCCCC[C@H](NC(=O)[C@H](CC(=O)O)NC(=O)[C@H](CO)NC(=O)[C@@H](NC(=O)[C@H](Cc1ccccc1)NC(=O)[C@@H](NC(=O)CNC(=O)[C@H](CCC(N)=O)NC(=O)C(C)(C)NC(=O)[C@@H](N)Cc1c[nH]cn1)[C@@H](C)O)[C@@H](C)O)C(=O)N[C@@H](CO)C(=O)N[C@@H](CCCCN)C(=O)N[C@@H](Cc1ccc(O)cc1)C(=O)N[C@@H](CC(C)C)C(=O)N[C@@H](CC(=O)O)C(=O)NC(C)(C)C(=O)N[C@@H](CCCNC(=N)N)C(=O)N[C@@H](C)C(=O)N[C@@H](C)C(=O)N[C@@H](CCC(N)=O)C(=O)N[C@@H](CC(=O)O)C(=O)N[C@@H](Cc1ccccc1)C(=O)N[C@H](C(=O)N[C@@H](CCC(N)=O)C(=O)N[C@@H](Cc1c[nH]c2ccccc12)C(=O)N[C@@H](CC(C)C)C(=O)N[C@@H](CCCCN)C(=O)N[C@@H](CC(=O)O)C(=O)NCC(=O)N[C@@H](CCCNC(=N)N)C(=O)NCC(N)=O)C(C)C)C(=O)O [compound 36] (H-H[Aib]QGTFTSDK([γGlu-Palmitoyl])SKYLD[Aib]RAAQDFVQWLKDGRG-NH2) | 0.028 | 0.003 | 0.47 |  |  |  |
| CCCCCCCCCCCCCCCC(=O)N[C@@H](CCC(=O)NCCCC[C@H](NC(=O)[C@H](CC(=O)O)NC(=O)[C@H](CO)NC(=O)[C@@H](NC(=O)[C@H](Cc1ccccc1)NC(=O)[C@@H](NC(=O)CNC(=O)[C@H](CCC(N)=O)NC(=O)[C@@H](C)NC(=O)[C@@H](N)Cc1cnc[nH]1)[C@@H](C)O)[C@@H](C)O)C(=O)N[C@@H](CO)C(=O)N[C@@H](CCCCN)C(=O)N[C@@H](Cc1ccc(O)cc1)C(=O)N[C@@H](CC(C)C)C(=O)N[C@@H](CC(=O)O)C(=O)N[C@@H](CCC(=O)O)C(=O)N[C@@H](CCCNC(=N)N)C(=O)N[C@@H](C)C(=O)N[C@@H](C)C(=O)N[C@@H](CCC(N)=O)C(=O)N[C@@H](CC(=O)O)C(=O)N[C@@H](Cc1ccccc1)C(=O)N[C@H](C(=O)N[C@@H](CCC(N)=O)C(=O)N[C@@H](Cc1c[nH]c2ccccc12)C(=O)N[C@@H](CC(C)C)C(=O)N[C@@H](CC(C)C)C(=O)N[C@@H](CC(=O)O)C(=O)N[C@H](C(N)=O)[C@@H](C)O)C(C)C)C(=O)O [compound 56] |  |  |  | 0.006 | 0.02 | 1.64 |
| CCCCCCCCCCCCCCCC(=O)N[C@@H](CCC(=O)NCCCC[C@H](NC(=O)[C@H](CC(=O)O)NC(=O)[C@H](CO)NC(=O)[C@@H](NC(=O)[C@H](Cc1ccccc1)NC(=O)[C@@H](NC(=O)CNC(=O)[C@H](CCC(N)=O)NC(=O)[C@@H](CO)NC(=O)[C@H](Cc1c[nH]cn1)NC(C)=O)[C@@H](C)O)[C@@H](C)O)C(=O)N[C@@H](CO)C(=O)N[C@@H](CCCCN)C(=O)N[C@@H](Cc1ccc(O)cc1)C(=O)N[C@@H](CC(C)C)C(=O)N[C@@H](CC(=O)O)C(=O)N[C@@H](CCC(=O)O)C(=O)N[C@@H](CCCNC(=N)N)C(=O)N[C@@H](C)C(=O)N[C@@H](C)C(=O)N[C@@H](CCC(N)=O)C(=O)N[C@@H](CC(=O)O)C(=O)N[C@@H](Cc1ccccc1)C(=O)N[C@H](C(=O)N[C@@H](CCC(N)=O)C(=O)N[C@@H](Cc1c[nH]c2ccccc12)C(=O)N[C@@H](CC(C)C)C(=O)N[C@@H](CC(C)C)C(=O)N[C@@H](CC(=O)O)C(=O)N[C@H](C(N)=O)[C@@H](C)O)C(C)C)C(=O)O [compound 21] | 0.005 | 0.009 | 4.5 |  |  |  |
| CCCCCCCCCCCCCCCC(=O)N[C@@H](CCC(=O)N[C@@H](CCC(=O)NCCCC[C@H](NC(=O)[C@H](CC(=O)O)NC(=O)[C@H](CO)NC(=O)[C@@H](NC(=O)[C@H](Cc1ccccc1)NC(=O)[C@@H](NC(=O)CNC(=O)[C@H](CCC(N)=O)NC(=O)C(C)(C)NC(=O)[C@@H](N)Cc1c[nH]cn1)[C@@H](C)O)[C@@H](C)O)C(=O)N[C@@H](CO)C(=O)N[C@@H](CCCCN)C(=O)N[C@@H](Cc1ccc(O)cc1)C(=O)N[C@@H](CC(C)C)C(=O)N[C@@H](CC(=O)O)C(=O)NC(C)(C)C(=O)N[C@@H](CCCNC(=N)N)C(=O)N[C@@H](C)C(=O)N[C@@H](C)C(=O)N[C@@H](CCC(N)=O)C(=O)N[C@@H](CC(=O)O)C(=O)N[C@@H](Cc1ccccc1)C(=O)N[C@H](C(=O)N[C@@H](CCC(N)=O)C(=O)N[C@@H](Cc1c[nH]c2ccccc12)C(=O)N[C@@H](CC(C)C)C(=O)N[C@@H](CCCCN)C(=O)N[C@@H](CC(=O)O)C(=O)NCC(=O)N[C@@H](CCCNC(=N)N)C(=O)N1CCC[C@H]1C(N)=O)C(C)C)C(=O)O)C(=O)O [compound 25] (H-H[Aib]QGTFTSDK([γGlu-γGlu-Palmitoyl])SKYLD[Aib]RAAQDFVQWLKDGRP-NH2) | 0.035 | 0.003 | 2.36 |  |  |  |
